Laboratory results published in ChEMBL document CHEMBL1909046, “DrugMatrix in vitro pharmacology data”.

Assays:
[1] = target: T1, Alpha-2A adrenergic receptor (Homo sapiens, UniProt P08913); format: cell membranes, Sf9, Membrane; settings: sf9; also: in other assays of this panel Not Active means under 50% inhibition at 10 µM
T1 sequence (P08913 whole entry): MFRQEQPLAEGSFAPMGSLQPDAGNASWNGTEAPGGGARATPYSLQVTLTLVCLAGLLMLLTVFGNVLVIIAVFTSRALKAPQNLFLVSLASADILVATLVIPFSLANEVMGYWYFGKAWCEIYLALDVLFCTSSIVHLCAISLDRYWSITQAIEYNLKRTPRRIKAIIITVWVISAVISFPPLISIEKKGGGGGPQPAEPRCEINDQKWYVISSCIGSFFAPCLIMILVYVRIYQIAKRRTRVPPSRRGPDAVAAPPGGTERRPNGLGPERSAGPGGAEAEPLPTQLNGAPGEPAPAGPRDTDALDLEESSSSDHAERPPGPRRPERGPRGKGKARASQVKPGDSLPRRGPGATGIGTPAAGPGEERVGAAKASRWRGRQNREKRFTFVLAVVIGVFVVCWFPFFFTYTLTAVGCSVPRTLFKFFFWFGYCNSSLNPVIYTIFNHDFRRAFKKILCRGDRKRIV

[2] = DRUGMATRIX: Calcium Channel Type L, Phenylalkylamine radioligand binding (ligand: [3H] (-)-Desmethoxyverapamil (D-888)); format: cell membranes, Rattus norvegicus, Wistar, Brain, Membrane; settings: Not Active = under 50% inhibition at 10 µM
[3] = target: T2, Amine oxidase [flavin-containing] A (Homo sapiens, UniProt P21397); test: DRUGMATRIX: Monoamine Oxidase MAO-A enzyme inhibition (substrate: Kynuramine); parameters: species or system BTI-TN-5B1-4; settings: bti-tn-5b1-4; Not Active = under 50% inhibition at 10 µM
T2 sequence (P21397 whole entry): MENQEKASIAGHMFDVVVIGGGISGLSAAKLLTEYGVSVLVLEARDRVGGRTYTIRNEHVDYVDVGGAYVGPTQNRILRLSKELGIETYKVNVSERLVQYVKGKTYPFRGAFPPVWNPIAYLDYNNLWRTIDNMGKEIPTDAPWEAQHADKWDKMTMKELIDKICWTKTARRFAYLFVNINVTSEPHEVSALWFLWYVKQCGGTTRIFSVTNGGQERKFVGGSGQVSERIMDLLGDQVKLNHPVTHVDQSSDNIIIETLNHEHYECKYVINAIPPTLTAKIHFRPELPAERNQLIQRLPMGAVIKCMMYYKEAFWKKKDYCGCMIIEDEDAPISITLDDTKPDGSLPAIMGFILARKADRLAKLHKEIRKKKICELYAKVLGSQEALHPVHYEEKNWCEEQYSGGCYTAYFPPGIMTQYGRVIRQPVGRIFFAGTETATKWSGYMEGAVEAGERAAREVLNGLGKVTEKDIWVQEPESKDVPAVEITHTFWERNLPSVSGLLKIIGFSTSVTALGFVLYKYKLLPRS

[4] = target: T3, Muscarinic acetylcholine receptor M2 (Homo sapiens, UniProt P08172); format: cell membranes, CHO-K1, Membrane; settings: cho-k1; also: in other assays of this panel Not Active means under 50% inhibition at 10 µM
T3 sequence (P08172 whole entry): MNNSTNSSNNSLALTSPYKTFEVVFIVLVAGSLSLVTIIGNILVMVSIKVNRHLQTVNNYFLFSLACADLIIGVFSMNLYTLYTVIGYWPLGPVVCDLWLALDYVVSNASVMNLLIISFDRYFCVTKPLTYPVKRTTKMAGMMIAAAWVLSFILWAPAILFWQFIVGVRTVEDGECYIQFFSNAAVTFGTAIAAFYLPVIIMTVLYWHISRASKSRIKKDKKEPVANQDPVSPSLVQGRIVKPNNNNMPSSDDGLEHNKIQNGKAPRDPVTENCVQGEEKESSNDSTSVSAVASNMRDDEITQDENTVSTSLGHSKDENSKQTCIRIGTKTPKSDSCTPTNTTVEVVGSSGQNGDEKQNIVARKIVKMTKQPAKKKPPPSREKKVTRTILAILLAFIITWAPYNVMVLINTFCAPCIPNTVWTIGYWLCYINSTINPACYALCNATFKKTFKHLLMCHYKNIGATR

Interstitial collagenase = target: T4, Interstitial collagenase (Homo sapiens, UniProt P03956); format: tissue-based, Rheumatoid synovial fibroblasts;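 also: MMP-1 enzyme inhibition assay using a peptide substrate; in other assays of this panel Not Active means under 50% inhibition at 10 µM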
T4 sequence (P03956 whole entry): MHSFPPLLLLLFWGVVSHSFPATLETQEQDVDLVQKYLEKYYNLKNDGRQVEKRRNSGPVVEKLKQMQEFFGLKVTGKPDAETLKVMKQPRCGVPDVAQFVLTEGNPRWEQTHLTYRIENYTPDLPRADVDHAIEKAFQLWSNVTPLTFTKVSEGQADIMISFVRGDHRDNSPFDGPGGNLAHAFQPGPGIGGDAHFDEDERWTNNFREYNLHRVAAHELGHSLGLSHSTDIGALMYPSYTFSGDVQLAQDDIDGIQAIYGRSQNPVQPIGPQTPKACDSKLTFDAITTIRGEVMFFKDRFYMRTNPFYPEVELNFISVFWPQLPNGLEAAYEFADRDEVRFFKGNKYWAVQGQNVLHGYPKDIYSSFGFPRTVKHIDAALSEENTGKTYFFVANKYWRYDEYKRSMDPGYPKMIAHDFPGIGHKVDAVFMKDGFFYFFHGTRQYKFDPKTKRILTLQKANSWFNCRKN

Adenosine receptor A3 = target: T5, Adenosine receptor A3 (Homo sapiens, UniProt P0DMS8); format: cell membranes, CHO-K1, Membrane;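 also: radioligand binding assay with AB-MECA serving as the labeled ligand; in other assays of this panel Not Active means under 50% inhibition at 10 µM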
T5 sequence (P0DMS8 whole entry): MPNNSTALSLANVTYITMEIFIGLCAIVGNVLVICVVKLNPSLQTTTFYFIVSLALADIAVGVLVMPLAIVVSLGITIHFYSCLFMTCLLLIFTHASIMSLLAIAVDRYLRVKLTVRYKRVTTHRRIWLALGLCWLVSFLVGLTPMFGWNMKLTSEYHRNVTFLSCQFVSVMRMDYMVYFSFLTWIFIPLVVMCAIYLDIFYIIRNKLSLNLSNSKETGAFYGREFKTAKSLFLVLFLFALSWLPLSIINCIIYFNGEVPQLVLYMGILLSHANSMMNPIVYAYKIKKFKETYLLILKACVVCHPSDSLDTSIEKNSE

Row | Structure (SMILES) | IC50 [1] | IC50 [2] | Ki [2] | IC50 [3] | IC50 [4] | IC50 (Interstitial collagenase) | IC50 (Adenosine receptor A3; cho-k1) | IC50 (Adenosine receptor A3; read-out: IC50) [µM] | Ki (Adenosine receptor A3; read-out: Ki) [nM]
1 | Nc1ccc(S(N)(=O)=O)cc1 [SULFANILAMIDE] | Not Active | Not Active | Not Active | Not Active | Not Active | Not Active | Not Active |  | 
2 | CC[C@H]1OC(=O)[C@H](C)[C@@H](O[C@H]2C[C@@](C)(OC)[C@@H](O)[C@H](C)O2)[C@H](C)[C@@H](O[C@@H]2O[C@H](C)C[C@H](N(C)C)[C@H]2O)[C@](C)(O)C[C@@H](C)/C(=N\OCOCCOC)[C@H](C)[C@@H](O)[C@]1(C)O [ROXITHROMYCIN] | Not Active | Not Active | Not Active | Not Active | Not Active | Not Active | Not Active |  | 
3 | COC(=O)c1ccc(O)cc1 [METHYLPARABEN] | Not Active | Not Active | Not Active | Not Active | Not Active | Not Active | Not Active |  | 
4 | NC(CO)(CO)CO [TROMETHAMINE] | Not Active | Not Active | Not Active | Not Active | Not Active | Not Active | Not Active |  | 
5 | CCOC(=O)[C@H](CCc1ccccc1)N[C@@H](C)C(=O)N1[C@H](C(=O)O)C[C@@H]2CCC[C@@H]21 | Not Active | Not Active | Not Active | Not Active | Not Active | Not Active | Not Active |  | 
6 | COc1cc(C(=O)NC2CCCNC2)cc(OC)c1OC (configuration not stated) [TROXIPIDE] | Not Active | Not Active | Not Active | Not Active | Not Active | Not Active | Not Active |  | 
7 | CCC[C@@H]1C[C@@H](C(=O)N[C@@H]([C@H]2O[C@H](SC)[C@H](O)[C@@H](O)[C@H]2O)[C@@H](C)O)N(C)C1 [LINCOMYCIN] | Not Active | Not Active | Not Active | Not Active | Not Active | Not Active | Not Active |  | 
8 | NNC(=O)c1ccncc1 [ISONIAZID] | Not Active | Not Active | Not Active | Not Active | Not Active | Not Active | Not Active |  | 
9 | Cc1ncc([N+](=O)[O-])n1CC(C)O (configuration not stated) [SECNIDAZOLE] | Not Active | Not Active | Not Active | Not Active | Not Active | Not Active | Not Active |  | 
10 | COS(C)(=O)=O [METHANESULFONIC ACID METHYL ESTER] | Not Active | Not Active | Not Active | Not Active | Not Active | Not Active | Not Active |  | 
11 | CC(C)(C)NCC(O)c1ccc(O)c(CO)c1 (configuration not stated) [ALBUTEROL] | Not Active | Not Active | Not Active | Not Active | Not Active | Not Active | Not Active |  | 
12 | Cc1ccc(C(=O)C(C)CN2CCCCC2)cc1 (configuration not stated) [TOLPERISONE] | Not Active | Not Active | Not Active | Not Active | Not Active | Not Active | Not Active |  | 
13 | CN[C@H](CC(C)C)C(=O)N[C@H]1C(=O)N[C@@H](CC(N)=O)C(=O)N[C@H]2C(=O)N[C@H]3C(=O)N[C@H](C(=O)N[C@H](C(=O)O)c4cc(O)cc(O)c4-c4cc3ccc4O)[C@H](O)c3ccc(c(Cl)c3)Oc3cc2cc(c3O[C@@H]2O[C@H](CO)[C@@H](O)[C@H](O)[C@H]2O[C@H]2C[C@](C)(N)[C@H](O)[C@H](C)O2)Oc2ccc(cc2Cl)[C@H]1O [VANCOMYCIN] | Not Active | Not Active | Not Active | Not Active | Not Active | Not Active | Not Active |  | 
14 | CC(=O)[C@H]1CC[C@H]2[C@@H]3CCC4=CC(=O)CC[C@]4(C)[C@H]3CC[C@]12C [PROGESTERONE] | Not Active | Not Active | Not Active | Not Active | Not Active | Not Active | Not Active |  | 
15 | C[C@](N)(Cc1ccc(O)cc1)C(=O)O [METYROSINE] | Not Active | Not Active | Not Active | Not Active | Not Active | Not Active | Not Active |  | 
16 | CC(C)[C@H](N)C(=O)OCCOCn1cnc2c(=O)nc(N)[nH]c21 [VALACYCLOVIR] | Not Active | Not Active | Not Active | Not Active | Not Active | Not Active | Not Active |  | 
17 | Cc1cc(NS(=O)(=O)c2ccc(N)cc2)no1 [SULFAMETHOXAZOLE] | Not Active | Not Active | Not Active | Not Active | Not Active | Not Active | Not Active |  | 
18 | CC1=C(/C=C/C(C)=C/C=C/C(C)=C\C(=O)O)C(C)(C)CCC1 [ISOTRETINOIN] | Not Active | Not Active | Not Active | Not Active | Not Active | Not Active |  | 4.17 | 2360
